Data: patent publication US20030144295A1, “Treatment for ischemic stroke” (YAMANOUCHI PHARMACEUTICAL CO., LTD., priority 2001, published 2003)

Assays:
AMPA receptor = conditions: cited from earlier work
[1] = cited from earlier work
[2] = tested on: rat embolic stroke models; test: Infarct volume (TTC staining) in rat embolic stroke models, Example 1; format: in vivo, rat (male Sprague-Dawley); conditions: 24 hours after blood clot injection; administration started 2 hours after clot; alteplase 10 mg/kg i.v., compound A 20 mg/kg/hour i.v. for 4 hours; n=8; control 361.2±20.9
Description: FIG. 1: Effect of a combined use of compound A with alteplase on infarct volume in rat embolic stroke models. Administration of compound A (20 mg/kg/hr; i.v. for 4 hours) and alteplase (10 mg/kg; i.v.; 10% of the total dose was subjected to an intravenous bolus administration while the remainder (90%) was subjected to an intravenous administration continuously over 1 hour) was initiated 2 hours after the injection of blood clot. After 24 hours from the infusion of the blood clot, the brain was excised, sliced and stained with TTC. The data in the drawing show a mean value±standard error (n=8). The symbol * means a statistically significant difference from a control group or an alteplase-administered group (*p<0.05; Dunnett's test or t-test). […]
(§1) Evaluation of formation of cerebral embolism by injection of blood clot was carried out using a laser Doppler flowmetry (FloC1; Omegawave) and the cerebral blood flow decreased to a level of 30% or less of the blood clot value immediately after ischemia was taken as a positive evidence of embolism formation. […] The cerebral blood flow was monitored until 30 minutes after infusion of the blood clot and the blood flow of 30 minutes after ischemia was confirmed to-remain 50% or less than the value prior to the injection of the blood clot. […]

[3] = tested on: rat embolic stroke models; test: Neurological symptoms (Bederson score) in rat embolic stroke models, Example 1; format: in vivo, rat (male Sprague-Dawley); conditions: Bederson score 0-3, 24 hours after blood clot injection; administration started 2 hours after clot; alteplase 10 mg/kg i.v., compound A 20 mg/kg/hour for 4 hours; n=8; control 2.5
Description: FIG. 2: Effect of a combined use of compound A with alteplase on neurological symptoms in rat embolic stroke models. Administration of zonampanel (20 mg/kg/hr; i.v. for 4 hours) and alteplase (10 mg/kg; i.v.; 10% of the total dose was subjected to an intravenous bolus administration while the remainder (90%) was subjected to an intravenous administration continuously over 1 hour) was initiated 2 hours after the injection of blood clot. After 24 hours from the injection of the blood clot, the neurological symptoms were observed. Data in the drawing show the data derived from each animal (n=8). The symbol * means a statistically significant difference from a control group or an alteplase-administered group (*p<0.05; Steel's test or Wilcoxon-test). […]
as §1

O=C(O)Cn1c(=O)c(=O)[nH]c2cc([N+](=O)[O-])c(-n3ccnc3)cc21 [compound A, [7-(1H-imidazol-1-yl)-6-nitro-2,3-dioxo-3,4-dihydroquinoxalin-1(2H)-yl]acetic acid]
AMPA binding activity (AMPA receptor): strong and selective
solubility in water [1]: high
infarct volume (mean value±standard error) [2]: 194.6±50.6 mm^3
neurological symptom score (median value) [3]: 2

Alteplase [reference compound]
infarct volume (mean value±standard error) [2]: 202.7±49.3 mm^3
